Measurements taken from ChEMBL document CHEMBL1201862, “PubChem BioAssay data set” (2004).
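Where inhibition never reached the appropriate level, the endpoint shown equals the highest concentration tested. Otherwise, values were interpolated linearly from a five-concentration, 48-hour dose response in 96-well plates. At the GI50, growth is halved.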 Active and inactive are the calls of the source. Cut-off read from the data, not from the text of the source: active = GI50 up to about 1.1 µM and inactive = higher.

Experiments:
Test in all cases: growth of human tumour cells (NCI), 48 h
[1] = tested on: HCC 2998
[2] = tested on: M14
[3] = tested on: U-251
[4] = tested on: SNB-19
[5] = tested on: MOLT-4
[6] = tested on: RXF 393
[7] = tested on: MCF7
[8] = tested on: SF-268
[9] = tested on: UACC-62
[10] = tested on: SK-MEL-2
[11] = tested on: Hs-578T
[12] = tested on: NCI-H460
[13] = tested on: LOX IMVI
[14] = tested on: HCT-15
[15] = tested on: CCRF-CEM
[16] = tested on: NCI-H522
[17] = tested on: SF-539
[18] = tested on: HT-29

Row | SMILES | GI50 [1] | GI50 [2] | GI50 [3] | GI50 [4] | GI50 [5] | GI50 [6] | GI50 [7] | GI50 [8] | GI50 [9] | GI50 [10] | GI50 [11] | GI50 [12] | GI50 [13] | GI50 [14] | GI50 [15] | GI50 [16] | GI50 [17] | GI50 [18]
1 | Nc1ccc2nc(-c3ccccn3)c(-c3ccccn3)nc2c1 | > 100 µM (inactive) | > 100 µM (inactive) | > 100 µM (inactive) | > 100 µM (inactive) | > 100 µM (inactive) | > 100 µM (inactive) | > 100 µM (inactive) | > 100 µM (inactive) | > 100 µM (inactive) | > 100 µM (inactive) | > 100 µM (inactive) | > 100 µM (inactive) | > 100 µM (inactive) | > 100 µM | > 100 µM (inactive) | > 100 µM (inactive) | > 100 µM (inactive) | 
2 | N#Cc1c(N2CCCC2)ncn(-c2ccccc2)c1=S | > 100 µM (inactive) | > 100 µM (inactive) | > 100 µM (inactive) | > 100 µM (inactive) | > 100 µM (inactive) | > 100 µM (inactive) | > 100 µM (inactive) | > 100 µM (inactive) | 19.5 µM (inactive) | > 100 µM (inactive) | > 100 µM (inactive) | > 100 µM (inactive) | > 100 µM (inactive) | > 100 µM | > 100 µM (inactive) | > 100 µM (inactive) | > 100 µM (inactive) | > 100 µM (inactive)
3 | COC1C(=O)N(SC)C1c1ccccc1Cl (stereo unspecified) | 14.7 µM (inactive) | 28.1 µM (inactive) | 52.4 µM (inactive) | > 100 µM (inactive) | 9.62 µM (inactive) | > 100 µM (inactive) | 19.7 µM (inactive) | > 100 µM (inactive) | 54.8 µM (inactive) | > 100 µM (inactive) | > 100 µM (inactive) | > 100 µM (inactive) | 42.2 µM (inactive) | 22.3 µM | 14.6 µM (inactive) | 16.6 µM (inactive) | 19.6 µM (inactive) | 20.3 µM (inactive)
4 | Cc1sc2nc(-c3ccc(Cl)c([N+](=O)[O-])c3)c(/C=N/NC(=N)N)n2c1C | 1.1 µM (active) | 1.53 µM (inactive) | 0.341 µM (active) | 1.48 µM (inactive) | 1.5 µM (inactive) | 1.52 µM (inactive) | 0.685 µM (active) | 1.85 µM (inactive) | 1.79 µM (inactive) | 1.32 µM (inactive) | 1.79 µM (inactive) | 1.63 µM (inactive) | 0.585 µM (active) | 1.37 µM |  | 1.71 µM (inactive) | 1.64 µM (inactive) | 1.35 µM (inactive)
5 | COc1oc(C2C/C(=C/C(C)=C/C(C)=C/C(C)=C/c3ccc([N+](=O)[O-])cc3)CO2)c(C)c(=O)c1C (stereo unspecified) | 22.4 µM (inactive) | 6.03 µM (inactive) | 6.27 µM (inactive) | 15.9 µM (inactive) | 1.67 µM (inactive) | 17.9 µM (inactive) | 1.59 µM (inactive) | 10.3 µM (inactive) | 5 µM (inactive) | 23.9 µM (inactive) | 5.89 µM (inactive) | 1.26 µM (inactive) | 4.02 µM (inactive) | 5.64 µM | 2.63 µM (inactive) | 0.344 µM (active) | 12 µM (inactive) | 3.14 µM (inactive)
6 | NS(=O)(=O)c1nn2c(Br)c(-c3ccccc3)nc2s1 | 4.92 µM (inactive) | 3.31 µM (inactive) | 4.59 µM (inactive) | 9.46 µM (inactive) | 1.61 µM (inactive) | 0.847 µM (active) | 3.95 µM (inactive) | 8.38 µM (inactive) | 4.23 µM (inactive) | 4.52 µM (inactive) | 9.48 µM (inactive) | 5.98 µM (inactive) | 1.95 µM (inactive) | 2.86 µM | 2.65 µM (inactive) | 1.61 µM (inactive) | 1.96 µM (inactive) | 2.49 µM (inactive)
7 | COc1ccc(/C=C2\CN(C)C/C(=C\c3ccc(OC)c(OC)c3OC)C2=O)c(OC)c1OC | 0.171 µM (active) | 0.073 µM (active) | 0.0333 µM (active) | 0.237 µM (active) | 0.0685 µM (active) | 0.167 µM (active) | 0.0507 µM (active) | 0.164 µM (active) | 0.2 µM (active) | 0.363 µM (active) | 0.303 µM (active) | 0.146 µM (active) | 0.115 µM (active) | 0.369 µM | 0.019 µM (active) | 0.184 µM (active) | 0.102 µM (active) | 0.171 µM (active)
8 | Cc1ccc(N/N=C2\C3=C(CCC(C)(C)O3)C(=O)c3ccccc32)cc1 | 19.7 µM (inactive) | 16.9 µM (inactive) | 37.5 µM (inactive) | 20.8 µM (inactive) | 28.8 µM (inactive) | 32.4 µM (inactive) | 13.7 µM (inactive) | 30.3 µM (inactive) | 14.9 µM (inactive) | 18.9 µM (inactive) | 11.6 µM (inactive) | 17.4 µM (inactive) | 10.3 µM (inactive) | 27.5 µM | 15.1 µM (inactive) | 32.4 µM (inactive) | 39.3 µM (inactive) | 18.8 µM (inactive)
9 | Clc1ccccc1C(Nc1cnccn1)Nc1cnccn1 | > 100 µM (inactive) | 5.85 µM (inactive) | > 100 µM (inactive) | > 100 µM (inactive) | 23.6 µM (inactive) | > 100 µM (inactive) | > 100 µM (inactive) | > 100 µM (inactive) | > 100 µM (inactive) | > 100 µM (inactive) | > 100 µM (inactive) | > 100 µM (inactive) | > 100 µM (inactive) | 8.71 µM | 0.675 µM (active) | > 100 µM (inactive) | > 100 µM (inactive) | > 100 µM (inactive)
10 | O=c1c2ccccc2nc(-c2cccc([N+](=O)[O-])c2)n1O | 59.6 µM (inactive) | 50.8 µM (inactive) | 27.4 µM (inactive) | 53.2 µM (inactive) |  | 47.1 µM (inactive) | 24.4 µM (inactive) | 34.4 µM (inactive) | 33.5 µM (inactive) | 22.6 µM (inactive) | > 100 µM (inactive) | 29.2 µM (inactive) | 27.2 µM (inactive) | 17.8 µM |  | 28.6 µM (inactive) | 47.8 µM (inactive) | 43.7 µM (inactive)
11 | CC(=O)CCNc1ccc(-c2cc(-c3ccc(N(C)C)cc3)nc3ccc4ccccc4c23)cc1 | > 100 µM (inactive) | 32.4 µM (inactive) | > 84.9 µM (inactive) | > 100 µM (inactive) | 6.76 µM (inactive) | 12.3 µM (inactive) | 27.1 µM (inactive) | > 44.5 µM (inactive) | > 60.8 µM (inactive) | 51.1 µM (inactive) | 39.2 µM (inactive) | 35.2 µM (inactive) | > 100 µM (inactive) | 49.7 µM | 8.07 µM (inactive) | > 100 µM (inactive) | > 53.7 µM (inactive) | 66.2 µM (inactive)
12 | COC12CCCN1c1ccn(Cc3ccccc3)c(=O)c1C2=O (stereo unspecified) | > 100 µM (inactive) | > 100 µM (inactive) | > 100 µM (inactive) | > 100 µM (inactive) | 28.7 µM (inactive) | > 100 µM (inactive) | > 100 µM (inactive) | > 100 µM (inactive) | > 100 µM (inactive) | > 100 µM (inactive) | > 100 µM (inactive) | > 100 µM (inactive) | > 100 µM (inactive) | > 100 µM | 82 µM (inactive) | > 100 µM (inactive) | > 100 µM (inactive) | > 100 µM (inactive)
13 | O=C(Cc1cc(=O)oc2cc(O)ccc12)N/N=C/c1ccc(N(CCCl)CCCl)cc1 | > 100 µM (inactive) | 19.5 µM (inactive) | 17.4 µM (inactive) | 21.1 µM (inactive) | 15.3 µM (inactive) | 16.6 µM (inactive) | 14.8 µM (inactive) | 13.4 µM (inactive) | 6.19 µM (inactive) | > 100 µM (inactive) | 26.1 µM (inactive) | 13.8 µM (inactive) | 16.6 µM (inactive) | > 100 µM | 15 µM (inactive) | 20.9 µM (inactive) | 18 µM (inactive) | 22.2 µM (inactive)
14 | COC(O)C(=O)c1c2c(cc3c1CC1(Cc4cc5c(cc4C1)CCC5)C3)CCC2 (stereo unspecified) | 23.6 µM (inactive) | 16.6 µM (inactive) | 11.6 µM (inactive) | 18.1 µM (inactive) | 15.8 µM (inactive) | 14.8 µM (inactive) | 16 µM (inactive) | 20.5 µM (inactive) |  | 16 µM (inactive) | 20.4 µM (inactive) | 23.6 µM (inactive) | 7.13 µM (inactive) | 20.7 µM | 4.33 µM (inactive) | 17.7 µM (inactive) | 17.3 µM (inactive) | 9.33 µM (inactive)
15 | COC(=O)/C=C1/N=C(N(C)/N=C/c2ccccc2)NC1=O | > 100 µM (inactive) | > 100 µM (inactive) |  | > 100 µM (inactive) | > 100 µM (inactive) | > 100 µM (inactive) | > 100 µM (inactive) | > 100 µM (inactive) | > 100 µM (inactive) | > 100 µM (inactive) | > 100 µM (inactive) | > 100 µM (inactive) | > 100 µM (inactive) | > 100 µM | > 100 µM (inactive) | > 100 µM (inactive) | > 100 µM (inactive) | > 100 µM (inactive)
16 | O=C(/C=C/c1ccccc1)Oc1ccc(C(=O)/C=C/c2ccccc2)cc1 | 8.47 µM (inactive) | 14.1 µM (inactive) |  | 15.1 µM (inactive) | 11.2 µM (inactive) | 23.1 µM (inactive) | 6.08 µM (inactive) | 12.3 µM (inactive) | 12.9 µM (inactive) | 22.4 µM (inactive) | 23.3 µM (inactive) | 8.87 µM (inactive) | 4.98 µM (inactive) | 4.29 µM | 3.3 µM (inactive) | 11.4 µM (inactive) | 3.24 µM (inactive) | 12.1 µM (inactive)
